The values that follow come from patent US8980795B2, “Strigolactone analogues and their use” (King Abdullah University of Science and Technology, priority 2011, dated 2015).

Experiment [1] deals with Striga hermonthica seeds. In words: Striga seed germination assay. Format: in vivo. The following applies: concentration of 3.3 μM; positive control, same conditions. Here is the method: Striga Seed Germination Assay Pre-conditioning of Striga hermonthica seeds was carried out in a first step to see the effect of germination stimulants. For this purpose clean Striga seeds were surface sterilized with 2% sodium hypochlorite in sterile water containing 0.4% of Tween-20. About 50 to 100 sterilized seeds were spread on 9-mm diameter glass fibre filter paper discs. Twelve of these discs were placed in a 9-cm diameter Petri-dish on sterilized Whatman filter paper, moistened with 3.0 ml sterilized water. After sealing with parafilm, the Petri-dishes were placed in darkness in an incubator at 30° C. After 10 days of incubation, the discs with preconditioned seeds were supposed to be ready to test germination stimulant. Surplus moisture was evaporated from each petri dish in laminar flow cabinet. The dry discs were then placed in another Petri-dish (six per Petri-dish) containing a filter paper ring (outer diameter 9 cm, inner diameter 8 cm) moistened with 0.9 ml water. Various concentration of the compound of formula IA were applied (50 μl per disc) to triplicate discs. GR24, a synthetic strigolactone analogue, was applied as positive control. Subsequently, the Striga seeds were incubated in darkness at 30° C. for another 48 hours and germination (seeds with radicle protruding through the seed coat) scored with the help of a binocular microscope.

Experiment [2] has as its system ccd8 rice mutant (d10). Nature of the experiment: Rice tillering assay. The following applies: 2 μM through nutrient solution, supplied daily, tillers counted up to 12 days. The format is in vivo, rice (Oryza sativa L.). On the procedure:
Rice seeds were surface sterilized with 2% sodium hypochlorite. The seeds were allowed to germinate in a Petri dish on a moistened filter paper. In the meanwhile bottom of 1.5 ml eppendorf tube was cut and filled with 0.6% phyto-agar. One pre-germinated seed was planted in the center of the tube on solid phytoagar and this tube was fitted in the cap of 10 ml plastic tube. The 10 ml tube was filled with modified Hoagland nutrient solution. After two weeks of planting, the compound of formula IA (2 μM) was added through nutrient solution to half of the tubes of each rice cultivars/mutants and the remaining half were kept as control. The nutrient solution with or without the compound of formula IA was supplied daily. Number of tillers per plant was counted at 24 hours interval up to 12 days of carlactone application.

`CC1CC(O/C=C2/C(=O)OC3c4ccccc4CC23)OC1=O` (centres unmarked) [GR24] registered a germination activity in experiment [1] of about 50%. As for `CC1=CC(O/C=C(C)\C=C\C2=C(C)CCCC2(C)C)OC1=O` (centres unmarked) [Compound IA], the tiller number result in experiment [2] is “reduction of tiller number”.
